These are literature values, as cited in patent US20260014155A1, “TICAGRELOR SOLID DISPERSION, METHOD FOR PREPARING SAME, AND USE THEREOF” (WISDOM PHARMACEUTICAL CO., LTD., priority 2022, published 2026).

For the data set the following is noted: low solubility and low permeability.

Consider `CCCSc1nc(N[C@@H]2C[C@H]2c2ccc(F)c(F)c2)c2nnn([C@@H]3C[C@H](OCCO)[C@@H](O)[C@H]3O)c2n1` [ticagrelor, (1S,2S,3R,5S)-3-[7-{[(1R,2S)-2-(3,4-difluorophenyl)cyclopropyl]amino}-5-(propylthio)-3H-[1,2,3]-triazolo[4,5-d]pyrimidin-3-yl]-5-(2-hydroxyethoxy)cyclopentane-1,2-diol], for which the biopharmaceutical classification result is “BCS class 4”.
